The numbers were not newly measured in patent US6676926B2, “Radiopharmaceuticals for diagnosing Alzheimer's disease” (Schering Aktiengesellschaft, priority 2000, dated 2004), which cites them from elsewhere.

One data set has as its system synthetic-amyloid. Conditions: in vitro.
For data set [1] the following is noted: normal mice.

Turning to `O=C(O)c1cc(/N=N/c2ccc(-c3ccc(/N=N/c4ccc(O)c(C(=O)O)c4)cc3)cc2)ccc1O` [Chrysamine G], the “binding to synthetic amyloid” value in the data set on synthetic-amyloid was “binds synthetic-amyloid well”. Moreover, in data set [1], the blood-brain barrier passage entry is “crosses the blood-brain barrier”.
